# Columns and labels:
# Format in all cases: in vivo
# [1] = tested on: redroot pigweed (Amaranthus retroflexus); test: Test G Pre-Emergence Protocol; details: evaluated after 13 days; for Pigweed, Redroot damage rating / plant damage rating, Pigweed, Redroot: 62.5 g ai/ha, 100=total damage to plant, 0=no damage to plant
# Description: (§1) Seeds of corn (Zea mays), giant foxtail (Setaria faberi), barnyardgrass (Echinochloa crus-galli), ivy-leaved morning glory (Ipomoea hederacea), redroot pigweed (Amaranthus retroflexus) and velvetleaf (Abutilon theophrasti) were sown in standard soil in pots. After cultivation for one day under controlled conditions in a glasshouse (at 24/16° C., day/night; 14 hours light; 65% humidity), the plants were sprayed with an aqueous spray solution derived from the formulation of the technical active ingredient in acetone/water (50:50) solution containing 0.5% Tween 20 (polyoxyethylene sorbitan monolaurate, CAS RN 9005-64-5) to give a final dose of 15.625, 62.5 or 250 g/ha of test compound.
# (§2) The test plants were then grown on under controlled conditions in a glasshouse (at 24/16° C., day/night; 14 hours light; 65% humidity) and watered twice daily. After 13 days the test was evaluated (100=total damage to plant; 0=no damage to plant). A dash (-) means no test result.
# [2] = tested on: giant foxtail (Setaria faberi); test: Test G Pre-Emergence Protocol; details: evaluated after 13 days; for Foxtail, Giant damage rating / plant damage rating, Foxtail, Giant: 62.5 g ai/ha, 100=total damage to plant, 0=no damage to plant
# Description: as §1, §2
# [3] = tested on: velvetleaf (Abutilon theophrasti); test: Test G Pre-Emergence Protocol; details: evaluated after 13 days; for Velvetleaf damage rating / plant damage rating, Velvetleaf: 62.5 g ai/ha, 100=total damage to plant, 0=no damage to plant
# Description: as §1, §2
# [4] = tested on: ivy-leaved morning glory (Ipomoea hederacea); test: Test G Pre-Emergence Protocol; details: evaluated after 13 days; for Morningglory, Ivy-leaved damage rating / plant damage rating, Morningglory, Ivy-leaved: 62.5 g ai/ha, 100=total damage to plant, 0=no damage to plant
# Description: as §1, §2
# corn (Zea mays) [5] = test: Test G Pre-Emergence Protocol; details: evaluated after 13 days; for Corn damage rating / plant damage rating, Corn: 62.5 g ai/ha, 100=total damage to plant, 0=no damage to plant
# Description: as §1, §2
# [6] = tested on: barnyardgrass (Echinochloa crus-galli); test: Test G Pre-Emergence Protocol; details: evaluated after 13 days; for Barnyardgrass damage rating / plant damage rating, Barnyardgrass: 62.5 g ai/ha, 100=total damage to plant, 0=no damage to plant
# Description: as §1, §2
# [7] = tested on: redroot pigweed (Amaranthus retroflexus); test: Test G Post-Emergence Protocol
# Description: as §1, with “8 days” for “one day”
# as §2
# [8] = tested on: giant foxtail (Setaria faberi); test: Test G Post-Emergence Protocol
# Description: as §1, with “8 days” for “one day”
# as §2
# [9] = tested on: velvetleaf (Abutilon theophrasti); test: Test G Post-Emergence Protocol
# Description: as §1, with “8 days” for “one day”
# as §2
# [10] = tested on: ivy-leaved morning glory (Ipomoea hederacea); test: Test G Post-Emergence Protocol
# Description: as §1, with “8 days” for “one day”
# as §2
# corn (Zea mays) [11] = test: Test G Post-Emergence Protocol
# Description: as §1, with “8 days” for “one day”
# as §2
# [12] = tested on: barnyardgrass (Echinochloa crus-galli); test: Test G Post-Emergence Protocol
# Description: as §1, with “8 days” for “one day”
# as §2
# [13] = 15.625 g ai/ha, evaluated after 13 days (100=total damage to plant; 0=no damage to plant)
# [14] = 62.5 g ai/ha, evaluated after 13 days, 100=total damage to plant, 0=no damage to plant
# [15] = 250 g ai/ha, evaluated after 13 days, 100=total damage to plant, 0=no damage to plant
# [16] = 62.5 g ai/ha, evaluated after 13 days
# [17] = 250 g ai/ha, evaluated after 13 days
SMILES,"Pigweed, Redroot damage rating (100=total damage to plant; 0=no damage to plant) ([1]; 15.625 g ai/ha)","Pigweed, Redroot damage rating [1]","Pigweed, Redroot damage rating (100=total damage to plant; 0=no damage to plant) ([1]; 250 g ai/ha)","Foxtail, Giant damage rating (100=total damage to plant; 0=no damage to plant) ([2]; 15.625 g ai/ha)","Foxtail, Giant damage rating [2]","Foxtail, Giant damage rating (100=total damage to plant; 0=no damage to plant) ([2]; 250 g ai/ha)",Velvetleaf damage rating (100=total damage to plant; 0=no damage to plant) ([3]; 15.625 g ai/ha),Velvetleaf damage rating [3],Velvetleaf damage rating (100=total damage to plant; 0=no damage to plant) ([3]; 250 g ai/ha),"Morningglory, Ivy-leaved damage rating (100=total damage to plant; 0=no damage to plant) ([4]; 250 g ai/ha)",Corn damage rating (100=total damage to plant; 0=no damage to plant) (corn (Zea mays) [5]; 15.625 g ai/ha),Corn damage rating (100=total damage to plant; 0=no damage to plant) (corn (Zea mays) [5]; 250 g ai/ha),Barnyardgrass damage rating (100=total damage to plant; 0=no damage to plant) ([6]; 15.625 g ai/ha),Barnyardgrass damage rating (100=total damage to plant; 0=no damage to plant) ([6]; 250 g ai/ha),"Pigweed, Redroot damage rating [7, 13]","Foxtail, Giant damage rating [8, 13]","Velvetleaf damage rating [9, 13]","Morningglory, Ivy-leaved damage rating [10, 13]",Corn damage rating (corn (Zea mays) [11]; [13]),"Barnyardgrass damage rating [12, 13]",further results
CN1C[C@H](c2cccc(C(F)(F)F)c2)[C@@H](C(=O)Nc2cccc(F)n2)C1=O [Compound 1816],0,40,80,90,90,90,0,20,60,80,70,80,90,90,10,80,0,10,70,80,"Morningglory, Ivy-leaved damage rating (100=total damage to plant; 0=no damage to plant) ([4]; 15.625 g ai/ha): 20; Morningglory, Ivy-leaved damage rating [4]: 60; Corn damage rating (corn (Zea mays) [5]): 80; Barnyardgrass damage rating [6]: 90; Pigweed, Redroot damage rating [7, 14]: 40; Pigweed, Redroot damage rating [7, 15]: 70; Foxtail, Giant damage rating [8, 14]: 80; Foxtail, Giant damage rating [8, 15]: 80; Velvetleaf damage rating [9, 14]: 30; Velvetleaf damage rating [9, 15]: 30; Morningglory, Ivy-leaved damage rating [10, 14]: 60; Morningglory, Ivy-leaved damage rating [10, 15]: 70; Corn damage rating (corn (Zea mays) [11]; [14]): 80; Corn damage rating (corn (Zea mays) [11]; [15]): 80; Barnyardgrass damage rating [12, 14]: 80; Barnyardgrass damage rating [12, 15]: 80"
CN1CC(c2ccc(C(F)(F)F)cc2)C(C(=O)Nc2[nH]cnc2[N+](=O)[O-])C1=O (racemic) [Compound 1507],0,–,0,0,–,0,0,–,0,0,0,0,0,0,0,0,0,0,0,0,"plant damage rating, Pigweed, Redroot [1]: 0; plant damage rating, Foxtail, Giant [2]: 0; plant damage rating, Velvetleaf [3]: 0; Morning-glory, Ivy-leaved damage rating (100=total damage to plant; 0=no damage to plant) ([4]; 15.625 g ai/ha): 0; plant damage rating, Morningglory, Ivy-leaved [4]: 0; plant damage rating, Corn (corn (Zea mays) [5]): 0; plant damage rating, Barnyardgrass [6]: 0; Pigweed, Redroot damage rating (100=total damage to plant; 0=no damage to plant) [7, 16]: 0; damage to plant, Pigweed, Redroot (100=total damage to plant; 0=no damage to plant) [7, 17]: 0; Foxtail, Giant damage rating (100=total damage to plant; 0=no damage to plant) [8, 16]: 0; damage to plant, Foxtail, Giant (100=total damage to plant; 0=no damage to plant) [8, 17]: 0; Velvetleaf damage rating (100=total damage to plant; 0=no damage to plant) [9, 16]: 0; damage to plant, Velvetleaf (100=total damage to plant; 0=no damage to plant) [9, 17]: 0; Morningglory, Ivy-leaved damage rating (100=total damage to plant; 0=no damage to plant) [10, 16]: 0; damage to plant, Morningglory, Ivy-leaved (100=total damage to plant; 0=no damage to plant) [10, 17]: 0; Corn damage rating (100=total damage to plant; 0=no damage to plant) (corn (Zea mays) [11]; [16]): 0; damage to plant, Corn (100=total damage to plant; 0=no damage to plant) (corn (Zea mays) [11]; [17]): 0; Barnyardgrass damage rating (100=total damage to plant; 0=no damage to plant) [12, 16]: 0; damage to plant, Barnyardgrass (100=total damage to plant; 0=no damage to plant) [12, 17]: 0"
CN1C[C@@H](c2ccc(C(F)(F)F)cc2)[C@H](C(=O)Nc2cccnc2F)C1=O [Compound 1768],0,0,0,0,0,0,0,0,0,0,0,0,0,0,0,0,0,0,0,0,"Morningglory, Ivy-leaved damage rating (100=total damage to plant; 0=no damage to plant) ([4]; 15.625 g ai/ha): 0; Morningglory, Ivy-leaved damage rating [4]: 0; Corn damage rating (corn (Zea mays) [5]): 0; Barnyardgrass damage rating [6]: 0; Pigweed, Redroot damage rating [7, 14]: 0; Pigweed, Redroot damage rating [7, 15]: 0; Foxtail, Giant damage rating [8, 14]: 0; Foxtail, Giant damage rating [8, 15]: 0; Velvetleaf damage rating [9, 14]: 0; Velvetleaf damage rating [9, 15]: 0; Morningglory, Ivy-leaved damage rating [10, 14]: 0; Morningglory, Ivy-leaved damage rating [10, 15]: 0; Corn damage rating (corn (Zea mays) [11]; [14]): 0; Corn damage rating (corn (Zea mays) [11]; [15]): 0; Barnyardgrass damage rating [12, 14]: 0; Barnyardgrass damage rating [12, 15]: 0"
COc1ccc([C@@H]2CN(C)C(=O)[C@H]2C(=O)Nc2ccccc2F)cc1[N+](=O)[O-] (racemic) [Compound 1417],0,–,30,0,–,90,0,–,0,30,0,0,0,80,20,0,10,0,0,10,"plant damage rating, Pigweed, Redroot [1]: 0; plant damage rating, Foxtail, Giant [2]: 80; plant damage rating, Velvetleaf [3]: 0; Morning-glory, Ivy-leaved damage rating (100=total damage to plant; 0=no damage to plant) ([4]; 15.625 g ai/ha): 0; plant damage rating, Morningglory, Ivy-leaved [4]: 0; plant damage rating, Corn (corn (Zea mays) [5]): 0; plant damage rating, Barnyardgrass [6]: 60; Pigweed, Redroot damage rating (100=total damage to plant; 0=no damage to plant) [7, 16]: 10; damage to plant, Pigweed, Redroot (100=total damage to plant; 0=no damage to plant) [7, 17]: 30; Foxtail, Giant damage rating (100=total damage to plant; 0=no damage to plant) [8, 16]: 70; damage to plant, Foxtail, Giant (100=total damage to plant; 0=no damage to plant) [8, 17]: 70; Velvetleaf damage rating (100=total damage to plant; 0=no damage to plant) [9, 16]: 20; damage to plant, Velvetleaf (100=total damage to plant; 0=no damage to plant) [9, 17]: 20; Morningglory, Ivy-leaved damage rating (100=total damage to plant; 0=no damage to plant) [10, 16]: 20; damage to plant, Morningglory, Ivy-leaved (100=total damage to plant; 0=no damage to plant) [10, 17]: 30; Corn damage rating (100=total damage to plant; 0=no damage to plant) (corn (Zea mays) [11]; [16]): 10; damage to plant, Corn (100=total damage to plant; 0=no damage to plant) (corn (Zea mays) [11]; [17]): 20; Barnyardgrass damage rating (100=total damage to plant; 0=no damage to plant) [12, 16]: 40; damage to plant, Barnyardgrass (100=total damage to plant; 0=no damage to plant) [12, 17]: 60"

# Reference: US12077503B2, “Substituted cyclic amides and their use as herbicides” (FMC CORPORATION, priority 2015, dated 2024)
